Experimental findings from PMC12498411, “Antidepressant-like Properties of a Selenium-Containing Pyridinium Salt Explored through In Vitro, In Vivo, and In Silico Approaches” (ACS Chemical Neuroscience, 2025) are described below.

Data set [1] deals with cerebral lipid peroxidation. As to the kind of experiment: TBARS assay, SNP-induced lipid peroxidation in brain homogenate. Format: biochemical, mouse. Conditions: mouse brain homogenate, SNP-induced. Here is the method: (§1) Brains from mice of both sexes were used for in vitro assays, each performed in duplicate across three independent experiments (n = 3), conducted on different days.
The brain tissues were homogenized in a 50 mM Tris-HCl buffer at pH 7.4, using a 1:10 ratio (w/v). The freshly prepared homogenate was then centrifuged at 900g for 10 min, yielding a low-speed supernatant (S1). Lipid peroxidation was evaluated using the TBARS method as previously described. Lipid peroxidation was induced by 0.3 mM SNP. A 100 μL aliquot of S1 was incubated for 1 h at 37 °C in the presence of the compounds 3A, 3B, and 3C at concentrations ranging from 25 to 500 μM, and SNP or water (to control). The color reaction was initiated by adding 500 μL of a 0.8% thiobarbituric acid (TBA) solution, followed by 200 μL of 8.1% sodium dodecyl sulfate (SDS) and 500 μL of acetic acid (pH 3.4). The reaction mixture was incubated at 95 °C for 1 h. The absorbance was measured using a spectrophotometer at a wavelength of 532 nm. Trolox (100 μM), an antioxidant analogous to vitamin E, served as a positive control. The results were reported as nmol TBARS per gram of tissue. A parallel TBARS experiment was also conducted using a standard alkyl aryl selenide (2-((phenylselanyl)-methyl)-pyridine), dissolved in DMSO at the same concentrations tested, ranging from 25 to 500 μM.

The next data set deals with protein carbonylation. As to the kind of experiment: Protein carbonylation assay, SNP-induced, brain homogenate. Format: biochemical, mouse. As to conditions: for IC50: mouse brain homogenate, SNP-induced, 25–200 μM; for Concentrations effective in reducing SNP-induced protein carbonylation: tested 25–200 μM. Here is the method: as §1
The evaluation of protein carbonylation was performed according to a previously established protocol, using freshly prepared brain homogenate diluted at a 1:8 ratio in Tris-HCl buffer. Test compounds (10 μL), ranging in concentrations from 25 to 200 μM, were individually introduced into separate test tubes. Trolox (100 μM) served as the standard antioxidant. The diluted brain homogenate (940 μL) was then added to all tubes, followed by SNP (1 mM) as the inducing oxidative agent (50 μL). The tubes were promptly incubated at 37 °C for 2 h. Following incubation, 2 M HCl was added to blank tubes (200 μL), while 10 mM 2,4-dinitrophenyl-hydrazine (DNPH) solution was added to test tubes (200 μL). The mixture was incubated for 1 h in darkness at room temperature, with intermittent stirring every 15 min to facilitate the color reaction. Subsequently, 500 μL of denaturation buffer, 1.5 mL of ethanol, and 1.5 mL of hexane were added to all tubes, which were then vigorously shaken for 40 s. The tubes were then centrifuged at 900g for 15 min, and the supernatant was carefully decanted. The resulting pellet was washed twice with 1 mL of ethanol/ethyl acetate solution (1:1). After allowing the pellet to dry air for 2 min, it was resuspended in 1 mL of denaturation buffer and subjected to spectrophotometric analysis at 370 nm. The findings were quantified as nmol carbonyl per gram of tissue.

A further data set concerns female Swiss mice. As to the kind of experiment: Acute oral toxicity, OECD Protocol 423 Acute Toxic Class Method. As to conditions: for Food intake vs control: 50 mg/kg or 300 mg/kg; for Food intake vs control / Physical signs / Animal mortality: 14 days; for Plasma ALT activity / Plasma urea levels / Physical signs / Animal mortality: 50 and 300 mg/kg; for Physical signs / Animal mortality: gavage, female mice; for Animal mortality: single dose. It is filed as in vivo, mouse. Here is the method: The evaluation of the acute toxicity of compounds 3A and 3B via oral administration was conducted in female Swiss mice, following the guidelines outlines in Protocol 423–OECD. The acute oral toxicity study of compound 3C was previously conducted by our research group, showing low toxicity and therefore was not evaluated here.
The animals were divided into 3 experimental groups (n = 6 mice/group) for each dosage testing: (I) Control, (II) Compound 3A, and (III) Compound 3B. Both compounds (3A and 3B) were administered at a single dose of 50 or 300 mg/kg via gavage, while control animals received water (vehicle). This high dose (300 mg/kg) was fractionated into three oral administrations of 100 mg/kg at a volume of 10 mL/kg with an interval of 30 min each. Over a period of 14 days, water and food consumption were monitored. In addition, changes in body weight and behavioral parameters such as lethargy, piloerection, and diarrhea were observed. Following this evaluation period, locomotion and exploration of the animals were assessed using the OFT. Subsequently, the animals were euthanized by an overdose of isoflurane, and blood, brain, liver, and kidney samples were collected for ex vivo analysis.
Blood plasma was used to assess liver and kidney function markers by quantifying the activity of AST and ALT, as well as urea levels, using commercially available kits (LABTEST; BIOCLIN). The brain, liver and kidneys were employed to investigate potential oxidative damage to lipids as a toxicity parameter utilizing the TBARS technique.
The aim of this behavioral test is to assess the locomotion and exploration behavior of the animals using an open field apparatus measuring 30 cm × 30 cm × 15 cm, constructed from plywood with a floor divided into nine quadrants, facilitating free movement for the animals. During the OFT, the animals were positioned in the center of the apparatus and subjected to a 5 min testing period, following the protocol outlined in literature. The number of quadrant crossings and rearings was recorded and quantified during testing phase.

One may read the IC50 as the point on the concentration scale where inhibition reaches its midpoint. High values mean weaker potency in that assay, low ones greater potency in that assay. Take `O=C(C[n+]1ccccc1C[Se]c1ccccc1)c1ccccc1.[Br-]` [Compound 3A, 1-(2-oxo-2-phenylethyl)-2-((phenylselanyl)methyl)pyridin-1-ium bromide]: the IC50 in data set [1] turned out to be 150 µM. Also, in the data set with protein carbonylation, the IC50 worked out at 130 µM and the “Concentrations effective in reducing SNP-induced protein carbonylation” value was “all concentrations”. In addition, in the data set with female Swiss mice (50 mg/kg), the “Body weight at the last measurement (last day) vs control” value is reported as “reduction in body weight”, the “Plasma AST activity” value is recorded as “did not affect AST activity” and the “Water consumption vs control” value is on record as “decreased”. Also, in the data set on female Swiss mice, the “Food intake vs control” value is given as “ate similar to the control group”, the “Plasma ALT activity” value is recorded as “remained unchanged”, the Plasma urea levels entry is given as “remained similar” and the Physical signs result is reported as “did not indicate any observable changes”. In addition, the Animal mortality entry in the data set with female Swiss mice was “no instances of animal mortality”. The “Water consumption vs control” value in the data set with female Swiss mice (300 mg/kg) is on record as “no significant difference”.

As for `Cc1ccc(C(=O)C[n+]2ccccc2C[Se]c2ccccc2)cc1` [Compound 3B, 1-(2-oxo-2-(p-tolyl)ethyl)-2-((phenylselanyl)methyl)pyridin-1-ium bromide], in data set [1], the 50% inhibitory concentration (IC50) is 130 µM. In the data set with protein carbonylation, the IC50 amounted to 230 µM and the “Concentrations effective in reducing SNP-induced protein carbonylation” value was determined as 200 µM. Besides, in the data set on female Swiss mice (50 mg/kg), the “Body weight at the last measurement (last day) vs control” value is recorded as “did not differ significantly”, the “Ex vivo lipid peroxidation (TBARS) in liver” value is recorded as “an increase in damage was observed” and the “Plasma AST activity” value is “did not affect AST activity”. Also, in the data set with female Swiss mice, the “Food intake vs control” value is given as “ate similar to the control group”, the “Plasma ALT activity” value is on record as “remained unchanged”, the Plasma urea levels entry is “remained similar” and the Physical signs entry was “did not indicate any observable changes”. Also, the Animal mortality result in the data set with female Swiss mice was “no instances of animal mortality”. For the same molecule, in the data set with female Swiss mice (300 mg/kg), the “Ex vivo lipid peroxidation (TBARS) in liver” value is “not evident at the higher dose”, the “Plasma AST activity” value is “an increase was observed” and the “Water consumption vs control” value is “no significant difference”.
